In US8710038B2, “Pyrazole kinase modulators and methods of use” (Exelixis, Inc., priority 2004, dated 2014):

Tests used:
flt-3 = target: T1, flt-3 (Homo sapiens, UniProt P36888); assay: flt-3 Luciferase-Coupled Chemiluminescent Kinase assay (LCCA); format: biochemical
T1 construct: baculovirus expressed human Flt-3 kinase domain R571-S993
T1 sequence (P36888 571-993): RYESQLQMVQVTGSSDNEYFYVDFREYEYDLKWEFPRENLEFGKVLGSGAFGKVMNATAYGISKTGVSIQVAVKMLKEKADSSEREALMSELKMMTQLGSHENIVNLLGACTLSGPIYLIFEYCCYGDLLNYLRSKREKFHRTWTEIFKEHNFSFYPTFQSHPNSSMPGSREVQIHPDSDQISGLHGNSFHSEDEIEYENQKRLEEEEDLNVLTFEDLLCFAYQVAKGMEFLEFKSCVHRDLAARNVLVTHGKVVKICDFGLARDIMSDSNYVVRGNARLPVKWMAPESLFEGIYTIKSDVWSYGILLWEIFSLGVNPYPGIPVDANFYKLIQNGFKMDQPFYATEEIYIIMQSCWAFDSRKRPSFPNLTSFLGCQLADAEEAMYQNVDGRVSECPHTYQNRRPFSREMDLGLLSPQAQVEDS
Procedure, shortened: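 Baculovirus-expressed human Flt-3 kinase domain (R571-S993, 5 nM) was reacted with 5 μM ATP and 3 μM poly-EY in Tris pH 7.5 buffer with MgCl2/MnCl2 for 3 h at ambient temperature. Remaining ATP was read by luciferase-luciferin chemiluminescence, with ATP consumption standardized to 25-45%, for IC50.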

c-Kit = c-Kit (Homo sapiens, UniProt P10721); assay: c-Kit biochemical assay (AlphaScreen)
Procedure, shortened: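 Kinase, compound, ATP and biotinylated poly(Glu,Tyr) 4:1 reacted 1 hr at ambient temperature; quenched with EDTA buffer (pH 7.4) containing streptavidin donor and anti-phosphotyrosine PY100 acceptor beads, incubated 16 hr, then AlphaScreen signal read to give IC50.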

EphB4 = target: T2, EphB4 (Homo sapiens, UniProt P54760); assay: EphB4 kinase inhibition assay; format: biochemical
T2 sequence (P54760 16-987): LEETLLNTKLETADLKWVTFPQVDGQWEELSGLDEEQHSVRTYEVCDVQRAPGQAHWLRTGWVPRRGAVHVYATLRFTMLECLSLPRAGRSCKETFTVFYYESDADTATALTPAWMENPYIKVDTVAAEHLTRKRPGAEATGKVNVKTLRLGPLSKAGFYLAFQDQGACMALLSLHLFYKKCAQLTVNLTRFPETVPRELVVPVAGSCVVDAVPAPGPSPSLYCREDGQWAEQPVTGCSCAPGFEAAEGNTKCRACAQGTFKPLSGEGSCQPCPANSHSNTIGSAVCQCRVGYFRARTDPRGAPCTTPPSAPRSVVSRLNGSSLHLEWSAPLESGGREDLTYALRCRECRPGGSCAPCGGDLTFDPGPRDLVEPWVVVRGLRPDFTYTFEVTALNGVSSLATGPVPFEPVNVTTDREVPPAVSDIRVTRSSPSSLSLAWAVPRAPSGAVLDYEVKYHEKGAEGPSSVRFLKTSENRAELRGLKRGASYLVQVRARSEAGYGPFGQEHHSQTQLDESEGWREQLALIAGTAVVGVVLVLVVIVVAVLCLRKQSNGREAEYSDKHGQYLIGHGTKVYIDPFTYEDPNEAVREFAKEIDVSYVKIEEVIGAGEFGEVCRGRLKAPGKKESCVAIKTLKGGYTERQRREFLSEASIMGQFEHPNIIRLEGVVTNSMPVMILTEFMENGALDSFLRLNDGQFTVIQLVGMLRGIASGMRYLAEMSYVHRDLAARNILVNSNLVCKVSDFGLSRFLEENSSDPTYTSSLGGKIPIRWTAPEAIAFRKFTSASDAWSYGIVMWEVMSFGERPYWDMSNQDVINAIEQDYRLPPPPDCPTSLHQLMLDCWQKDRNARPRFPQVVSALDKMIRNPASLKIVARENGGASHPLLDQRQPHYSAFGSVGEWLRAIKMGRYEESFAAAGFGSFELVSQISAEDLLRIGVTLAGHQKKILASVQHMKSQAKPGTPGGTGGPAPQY
Protocol: (§1) Kinase activity and compound inhibition are investigated using one or more of the three assay formats described below. The ATP concentrations for each assay are selected to be close to the Michaelis-Menten constant (KM) for each individual kinase. Dose-response experiments are performed at 10 different inhibitor concentrations in a 384-well plate format. The data are fitted to four-parameter equation (2) below; where Y is the observed signal, X is the inhibitor concentration, Min is the background signal in the absence of enzyme (0% enzyme activity), Max is the signal in the absence of inhibitor (100% enzyme activity), IC50 is the inhibitor concentration at 50% enzyme inhibition and H represents the empirical Hill's slope to measure the cooperativity. Typically H is close to unity. Y=Min+(Max−Min)/(1+(X/IC50)^H) Equation (2) ^33P Phosphoryl Transfer Assay: […]
(§2) Greiner 384-well white, clear bottom, high binding plates are coated with 2 μg/well of protein or peptide substrate in a 50 μL volume overnight at ambient temperature. The coating buffer typically contains 40 μg/mL substrate, 22.5 mM Na2CO3, 27.5 mM NaHCO3, 150 mM NaCl and 3 mM NaN3. The coating solution is aspirated and the plates are washed once with 50 μL of assay buffer and padded dry. Subsequently compounds and enzymes are mixed with γ^33P-ATP (3.3 μCi/nmol) in a total volume of 20 uL in suitable assay buffers. The mixture is incubated at ambient temperature for 1.5-2.5 hrs and terminated by aspiration using a Molecular Devices EMBLA 96-head plate washer. The plates are subsequently washed 6-12 times with PBST or TBS buffer. Scintillation fluid (50 μl/well) is then added, the plates are sealed and activity assessed by liquid scintillation spectrometry using a Perkin Elmer MicroBeta TriLux.
(§3) In the LCCA assays, kinase activity is measured as the percent ATP consumed following the kinase reaction using luciferase-luciferin-coupled chemiluminescence. Greiner 384-well white, clear bottom, medium-binding plates are used for LCCA. Briefly, the kinase reaction is initiated by mixing compounds, ATP and kinase in a 20 uL volume. The mixture is incubated at ambient temperature for 2-4 hrs. At the end of the kinase reaction, a 20 uL luciferase-luciferin mix is added and the chemiluminescent signal is read using a Wallac Victor^2 reader. The luciferase-luciferin mix consists of 50 mM HEPES, pH 7.8, 8.5 ug/mL oxalic acid (pH 7.8), 5 (or 50) mM DTT, 0.4% Triton X-100, 0.25 mg/mL coenzyme A, 63 uM AMP, 28 ug/mL luciferin and 40,000 units of light/mL luciferase. For the LCCA assays, total ATP consumption has been standardized to 25-45% and the IC50 values correlates well with those determined by radiometric assays.
(§4) AlphaScreen technology is a proximity assay which utilizes the increase in fluorescent signal occurring when donor and acceptor beads are close in proximity. Biotinylated poly(Glu,Tyr) 4:1 is used as the kinase substrate, in conjunction with streptavidin-coated donor beads and anti-phosphortyrosine antibody PY100-coated acceptor beads. Upon phosphorylation, the peptide substrate can bind to both donor and acceptor beads giving rise to an increase in fluorescence. Compounds, ATP, biotinylated poly(Glu, Tyr) and kinases are mixed in a volume of 20 uL for 1 hr at ambient temperature using Greiner 384-well white clear bottom medium binding plates. Following incubation a 10 uL solution containing […] AlphaScreen beads, 75 mM Hepes, pH 7.4, 300 mM NaCl, 120 mM EDTA, 0.3% BSA and 0.03% Tween-20 is added to each well. After 2-16 hr incubation of the beads, plates are read in a Perkin Elmer AlphaQuest reader. The IC50 values correlates well with those of radiometric assays.

EGFR = EGFR (Homo sapiens, UniProt P00533); assay: EGFR kinase inhibition assay; format: biochemical
Protocol: as §1, §2, §3, §4

EGFR, sequence (P00533 25-1210, species assumed): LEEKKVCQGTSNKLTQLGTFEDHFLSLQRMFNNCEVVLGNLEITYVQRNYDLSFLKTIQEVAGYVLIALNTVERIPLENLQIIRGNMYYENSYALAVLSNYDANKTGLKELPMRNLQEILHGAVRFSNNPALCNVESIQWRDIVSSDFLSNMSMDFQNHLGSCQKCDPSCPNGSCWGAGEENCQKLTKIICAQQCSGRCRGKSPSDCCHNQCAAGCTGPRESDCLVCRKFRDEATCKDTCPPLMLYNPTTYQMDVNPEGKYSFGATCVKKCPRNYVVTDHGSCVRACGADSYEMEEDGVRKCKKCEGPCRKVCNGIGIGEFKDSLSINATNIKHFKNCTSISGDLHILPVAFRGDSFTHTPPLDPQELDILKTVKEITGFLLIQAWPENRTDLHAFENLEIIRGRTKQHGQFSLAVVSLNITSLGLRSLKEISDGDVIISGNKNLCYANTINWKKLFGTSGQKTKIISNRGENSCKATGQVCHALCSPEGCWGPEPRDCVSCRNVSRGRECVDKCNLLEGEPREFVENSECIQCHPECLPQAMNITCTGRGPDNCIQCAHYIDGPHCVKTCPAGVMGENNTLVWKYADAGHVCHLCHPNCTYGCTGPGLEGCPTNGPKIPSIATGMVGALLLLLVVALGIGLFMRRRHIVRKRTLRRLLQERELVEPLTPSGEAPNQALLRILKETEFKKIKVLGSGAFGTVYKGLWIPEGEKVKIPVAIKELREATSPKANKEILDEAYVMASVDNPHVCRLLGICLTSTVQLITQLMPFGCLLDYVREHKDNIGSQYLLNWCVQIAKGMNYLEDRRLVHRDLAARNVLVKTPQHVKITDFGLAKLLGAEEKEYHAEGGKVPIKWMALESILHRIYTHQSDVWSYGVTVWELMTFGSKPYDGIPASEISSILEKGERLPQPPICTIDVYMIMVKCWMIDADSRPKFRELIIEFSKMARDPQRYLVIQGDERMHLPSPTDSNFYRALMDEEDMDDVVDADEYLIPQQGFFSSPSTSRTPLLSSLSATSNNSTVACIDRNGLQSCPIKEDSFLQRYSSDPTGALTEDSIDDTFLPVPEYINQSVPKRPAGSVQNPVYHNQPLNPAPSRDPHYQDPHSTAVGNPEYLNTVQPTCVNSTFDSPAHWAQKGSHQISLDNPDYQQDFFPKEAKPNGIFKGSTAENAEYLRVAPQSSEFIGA
c-Kit, sequence (P10721 26-976): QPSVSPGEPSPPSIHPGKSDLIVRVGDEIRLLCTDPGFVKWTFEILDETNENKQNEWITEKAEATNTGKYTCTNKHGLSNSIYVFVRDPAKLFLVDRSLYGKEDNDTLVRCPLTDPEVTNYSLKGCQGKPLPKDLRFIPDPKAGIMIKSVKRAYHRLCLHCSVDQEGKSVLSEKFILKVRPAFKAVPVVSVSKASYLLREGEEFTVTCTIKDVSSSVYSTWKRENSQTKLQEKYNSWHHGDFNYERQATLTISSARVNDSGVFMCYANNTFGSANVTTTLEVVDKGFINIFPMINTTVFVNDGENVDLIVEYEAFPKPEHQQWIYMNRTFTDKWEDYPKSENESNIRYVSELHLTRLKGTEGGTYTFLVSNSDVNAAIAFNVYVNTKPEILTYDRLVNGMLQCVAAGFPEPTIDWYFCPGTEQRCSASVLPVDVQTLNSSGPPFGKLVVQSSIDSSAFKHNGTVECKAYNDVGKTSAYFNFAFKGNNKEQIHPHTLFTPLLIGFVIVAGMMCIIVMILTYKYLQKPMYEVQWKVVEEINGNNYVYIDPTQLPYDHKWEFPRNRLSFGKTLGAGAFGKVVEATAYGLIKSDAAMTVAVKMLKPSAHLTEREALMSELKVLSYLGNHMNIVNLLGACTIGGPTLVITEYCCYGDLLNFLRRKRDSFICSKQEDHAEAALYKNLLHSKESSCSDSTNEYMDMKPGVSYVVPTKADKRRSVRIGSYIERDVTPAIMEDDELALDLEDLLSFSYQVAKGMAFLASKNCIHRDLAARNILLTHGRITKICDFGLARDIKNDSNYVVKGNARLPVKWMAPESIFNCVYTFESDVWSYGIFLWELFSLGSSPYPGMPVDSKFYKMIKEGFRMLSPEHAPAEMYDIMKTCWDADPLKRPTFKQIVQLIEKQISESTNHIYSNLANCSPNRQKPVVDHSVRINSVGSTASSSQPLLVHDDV

IC50 (flt-3) [µM] | IC50 (c-Kit) [µM] | IC50 (EphB4) [µM] | IC50 (EGFR) [µM] | Structure (SMILES)
< 0.05 | < 0.05 | > 5 | > 5 | CN1CCN(c2ccc3[nH]c(-c4cc(-c5ccc(NC(=O)Nc6ccc(F)cc6)cc5)[nH]n4)nc3c2)CC1 [Entry 23, N-(4-fluorophenyl)-N′-(4-{3-[5-(4-methylpiperazin-1-yl)-1H-benzimidazol-2-yl]-1H-pyrazol-5-yl}phenyl)urea]
< 0.05 | < 0.05 | > 5 | > 5 | CN1CCN(c2ccc3[nH]c(-c4cc(-c5ccc(NC(=O)Nc6ccc(F)c(F)c6)cc5)[nH]n4)nc3c2)CC1 [Entry 25, N-(3,4-difluorophenyl)-N′-(4-{3-[5-(4-methylpiperazin-1-yl)-1H-benzimidazol-2-yl]-1H-pyrazol-5-yl}phenyl)urea]
< 0.05 | < 0.05 | > 5 | > 5 | CCN1CCN(c2ccc3nc(-c4cc(-c5ccc(NC(=O)Nc6ccc(F)cc6F)cc5)[nH]n4)[nH]c3c2)CC1 [Entry 29, N-(2,4-difluorophenyl)-N′-(4-{3-[6-(4-ethylpiperazin-1-yl)-1H-benzimidazol-2-yl]-1H-pyrazol-5-yl}phenyl)urea]
< 0.05 | < 0.05 | > 5 | > 5 | O=C(Nc1ccc(-c2cc(-c3nc4ccccc4[nH]3)n[nH]2)cc1)Nc1ccc(Cl)c(C(F)(F)F)c1 [Entry 30, N-{4-[3-(1H-benzimidazol-2-yl)-1H-pyrazol-5-yl]phenyl}-N′-[4-chloro-3-(trifluoromethyl)phenyl]urea]
< 0.05 | < 0.05 | > 5 | > 5 | O=C(Nc1ccc(-c2cc(-c3nc4ccccc4[nH]3)n[nH]2)cc1)Nc1cc(C(F)(F)F)ccc1F [Entry 31, N-{4-[3-(1H-benzimidazol-2-yl)-1H-pyrazol-5-yl]phenyl}-N′-[2-fluoro-5-(trifluoromethyl)phenyl]urea]
< 0.05 | < 0.05 | > 5 | > 5 | CN1CCN(c2ccc3[nH]c(-c4cc(-c5ccc(NC(=O)Nc6ccc(F)cc6F)cc5)[nH]n4)nc3c2)CC1 [Entry 32, N-(2,4-difluorophenyl)-N′-(4-{3-[5-(4-methylpiperazin-1-yl)-1H-benzimidazol-2-yl]-1H-pyrazol-5-yl}phenyl)urea]
< 0.05 | < 0.05 | 0.5 to 5 | > 5 | CN1CCN(c2ccc3[nH]c(-c4cc(-c5ccc(NC(=O)Nc6cc(C(F)(F)F)cc(C(F)(F)F)c6)cc5)[nH]n4)nc3c2)CC1 [Entry 34, N-[3,5-bis(trifluoromethyl)phenyl]-N′-(4-{3-[5-(4-methylpiperazin-1-yl)-1H-benzimidazol-2-yl]-1H-pyrazol-5-yl}phenyl)urea]
< 0.05 | < 0.05 | > 5 | > 5 | CN1CCN(c2ccc3[nH]c(-c4cc(-c5ccc(NC(=O)Nc6ccccc6F)cc5)[nH]n4)nc3c2)CC1 [Entry 35, N-(2-fluorophenyl)-N′-(4-{3-[5-(4-methylpiperazin-1-yl)-1H-benzimidazol-2-yl]-1H-pyrazol-5-yl}phenyl)urea]
< 0.05 | < 0.05 | > 5 | > 5 | Oc1ccc(/C=C/c2cc(/C=C/c3ccccc3)[nH]n2)cc1 [Entry 36, 4-((E)-2-{5-[(E)-2-phenylethenyl]-1H-pyrazol-3-yl}ethenyl)phenol]
< 0.05 | < 0.05 | 0.5 to 5 | > 5 | COc1cc(/C=C/c2cc(/C=C/c3ccccc3)[nH]n2)ccc1O [Entry 37, 2-(methyloxy)-4-((E)-2-{5-[(E)-2-phenylethenyl]-1H-pyrazol-3-yl}ethenyl)phenol]
< 0.05 | 0.05 to 0.5 | > 5 | > 5 | CN1CCN(c2ccc3[nH]c(-c4cc(-c5ccc(NC(=O)Nc6ccccc6)cc5)[nH]n4)nc3c2)CC1 [Entry 39, N-(4-{3-[5-(4-methylpiperazin-1-yl)-1H-benzimidazol-2-yl]-1H-pyrazol-5-yl}phenyl)-N′-phenylurea]
< 0.05 | 0.05 to 0.5 | > 5 | > 5 | CN1CCN(c2ccc(-c3cc(-c4ccc(NC(=O)Nc5ccc(F)cc5F)cc4)[nH]n3)cc2)CC1 [Entry 41, N-(2,4-difluorophenyl)-N′-(4-{3-[4-(4-methylpiperazin-1-yl)phenyl]-1H-pyrazol-5-yl}phenyl)urea]
< 0.05 | 0.05 to 0.5 | > 5 | > 5 | CN1CCN(c2ccc(-c3cc(-c4ccc(NC(=O)Nc5ccc6c(c5)OCCO6)cc4)n[nH]3)cc2)CC1 [Entry 42, N-(2,3-dihydro-1,4-benzodioxin-6-yl)-N′-(4-{5-[4-(4-methylpiperazin-1-yl)phenyl]-1H-pyrazol-3-yl}phenyl)urea]
